Measured values from patent publication US6703502B2 (priority 1997, dated 2004).

Molecular target: α7 nAChR subtype (Rattus norvegicus, UniProt Q05941)
Assay type: binding
Settings: read-out: KD of radioligand

Chain of α7 nAChR subtype (Q05941 23-502 limits assumed): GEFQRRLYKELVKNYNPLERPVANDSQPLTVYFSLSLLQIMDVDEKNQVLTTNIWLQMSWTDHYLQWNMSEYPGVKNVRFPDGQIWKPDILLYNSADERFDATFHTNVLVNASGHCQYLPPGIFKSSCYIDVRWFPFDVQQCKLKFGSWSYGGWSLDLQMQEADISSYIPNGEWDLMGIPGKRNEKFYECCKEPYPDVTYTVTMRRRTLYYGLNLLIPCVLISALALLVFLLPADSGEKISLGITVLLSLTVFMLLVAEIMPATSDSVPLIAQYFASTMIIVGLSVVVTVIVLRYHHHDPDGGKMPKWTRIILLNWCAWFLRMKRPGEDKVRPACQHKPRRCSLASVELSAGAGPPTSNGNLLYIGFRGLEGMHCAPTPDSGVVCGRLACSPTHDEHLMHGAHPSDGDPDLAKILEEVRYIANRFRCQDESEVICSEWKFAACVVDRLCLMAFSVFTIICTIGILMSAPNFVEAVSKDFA

[^125I]-α-Bungarotoxin [^125I-α-BTX]
Kd: 1.67 nM
